Laboratory results from US8940742B2, “Heterocyclic compounds and uses thereof” (Infinity Pharmaceuticals, Inc., priority 2012, dated 2015).

Key:
RAJI p110 δ = RAJI p110 δ (Homo sapiens, UniProt O00329); test: RAJI p110 δ cellular assay (phospho-AKT);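 also: potency based on lowered phosphorylated AKT in RAJI cells, as a readout of PI3K-δ dependent B-cell receptor signaling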
Source text: (a) PI3K-δ Selective Assay
Reduction of phospho-AKT is indicative of compounds that may inhibit B-cell proliferation and function in certain diseases.

Raw264.7 p110 γ = biological target: T1, Raw264.7 p110 γ (Mus musculus, UniProt Q9JHG7); test: Raw264.7 p110 γ cellular assay (phospho-AKT); assay type: cell-based; settings: serum-starved RAW264.7 cells stimulated with C5a
T1 construct: reduction of phospho-AKT in stimulated RAW 264.7 cells; endogenous in cells; host or cells: RAW264.7 macrophages
T1 sequence (Q9JHG7 whole entry): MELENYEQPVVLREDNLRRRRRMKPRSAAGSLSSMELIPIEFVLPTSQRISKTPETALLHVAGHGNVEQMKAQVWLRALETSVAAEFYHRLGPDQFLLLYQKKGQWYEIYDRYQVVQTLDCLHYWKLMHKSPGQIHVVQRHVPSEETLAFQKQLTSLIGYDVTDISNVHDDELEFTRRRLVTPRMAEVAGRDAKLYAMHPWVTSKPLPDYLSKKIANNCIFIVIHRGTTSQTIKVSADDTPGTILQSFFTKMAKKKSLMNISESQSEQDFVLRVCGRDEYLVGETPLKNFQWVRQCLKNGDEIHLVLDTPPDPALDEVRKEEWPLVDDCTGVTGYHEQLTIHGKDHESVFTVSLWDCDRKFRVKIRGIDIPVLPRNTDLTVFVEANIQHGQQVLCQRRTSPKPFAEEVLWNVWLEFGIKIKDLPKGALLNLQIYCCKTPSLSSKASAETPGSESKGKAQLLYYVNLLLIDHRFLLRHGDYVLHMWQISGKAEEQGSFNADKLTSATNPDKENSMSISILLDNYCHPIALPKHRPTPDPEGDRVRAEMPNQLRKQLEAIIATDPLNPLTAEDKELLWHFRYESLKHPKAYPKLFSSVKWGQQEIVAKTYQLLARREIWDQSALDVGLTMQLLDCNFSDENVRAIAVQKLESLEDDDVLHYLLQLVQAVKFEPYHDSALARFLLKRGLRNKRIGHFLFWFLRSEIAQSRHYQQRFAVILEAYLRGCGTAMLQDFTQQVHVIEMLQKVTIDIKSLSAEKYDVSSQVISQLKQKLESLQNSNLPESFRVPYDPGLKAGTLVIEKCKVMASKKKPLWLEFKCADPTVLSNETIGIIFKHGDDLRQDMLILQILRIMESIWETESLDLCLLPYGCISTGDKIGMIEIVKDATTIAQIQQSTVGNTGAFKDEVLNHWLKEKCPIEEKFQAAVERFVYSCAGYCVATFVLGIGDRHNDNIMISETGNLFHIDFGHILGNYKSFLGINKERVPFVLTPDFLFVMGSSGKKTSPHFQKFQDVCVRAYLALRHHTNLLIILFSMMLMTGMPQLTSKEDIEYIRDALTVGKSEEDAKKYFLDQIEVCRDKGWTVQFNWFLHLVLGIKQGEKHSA
Source text: (b) PI3K-γ Selective Assay
Briefly, serum-starved PAW264.7 cells are stimulated with a known GPCR agonist C5a. […] Cells can be treated with test compounds prior to, simultaneously with, or subsequent to the stimulation by C5a. RAW 264.7 cells respond to the complement component fragment C5a through activation of the C5a receptor, and the C5a receptor activates macrophages and induces cell migration.

PI3K α = biological target: T2, PI3K α (Homo sapiens, UniProt P42336); test: PI3-Kinase Promega ADP-Glo Max assay; assay type: biochemical; settings: 20 nM kinase, 3 mM ATP, 500 uM diC8-PtdInsP
T2 construct: purchased Millipore
Experimental: (§1) Promega ADP-Glo Max assay kit (Cat. No. V7002) was utilized to determine IC50 values for α, β, δ and γ isoforms of human Class I PI3 kinases (Millipore). Samples of kinase (20 nM α or δ, 40 nM β or γ isoform) were incubated with compound for 15 minutes at room temperature in reaction buffer (15 mM HEPES pH 7.4, 20 mM NaCl, 1 mM EGTA, 0.02% Tween 20, 10 mM MgCl2, 0.2 mg/mL bovine-γ-globulins) followed by addition of ATP/diC8-PtdInsP mixture to give final concentrations of 3 mM ATP and 500 uM diC8-PtdInsP. Reactions were incubated at room temperature for 2 hours followed by addition of 25 uL of stop solution. After a 40-minute incubation at room temperature, 50 uL of Promega detection mix was added followed by incubation for 1 hour at room temperature. Plates were then read on Envision plate reader in luminescence mode. Data was converted to % inhibition using the following equation below:
(§2) [formula] where S is the sample luminescence, Pos is a positive control without added PI3K, Neg is the negative control without added compound. Data was then plotted as % inhibition vs compound concentration. Data fit to 4 parameter logistic equation to determine IC50 values: […]
(§3) Certain compounds provided herein were tested in PI3-Kinase Promega Assay using procedures as described above to determine IC50 values for α, β, δ and/or γ isoforms.

PI3K β = biological target: T3, PI3K β (Homo sapiens, UniProt P42338); test: PI3-Kinase Promega ADP-Glo Max assay; assay type: biochemical; settings: 40 nM kinase, 3 mM ATP, 500 uM diC8-PtdInsP
T3 construct: purchased Millipore
T3 sequence (P42338 whole entry): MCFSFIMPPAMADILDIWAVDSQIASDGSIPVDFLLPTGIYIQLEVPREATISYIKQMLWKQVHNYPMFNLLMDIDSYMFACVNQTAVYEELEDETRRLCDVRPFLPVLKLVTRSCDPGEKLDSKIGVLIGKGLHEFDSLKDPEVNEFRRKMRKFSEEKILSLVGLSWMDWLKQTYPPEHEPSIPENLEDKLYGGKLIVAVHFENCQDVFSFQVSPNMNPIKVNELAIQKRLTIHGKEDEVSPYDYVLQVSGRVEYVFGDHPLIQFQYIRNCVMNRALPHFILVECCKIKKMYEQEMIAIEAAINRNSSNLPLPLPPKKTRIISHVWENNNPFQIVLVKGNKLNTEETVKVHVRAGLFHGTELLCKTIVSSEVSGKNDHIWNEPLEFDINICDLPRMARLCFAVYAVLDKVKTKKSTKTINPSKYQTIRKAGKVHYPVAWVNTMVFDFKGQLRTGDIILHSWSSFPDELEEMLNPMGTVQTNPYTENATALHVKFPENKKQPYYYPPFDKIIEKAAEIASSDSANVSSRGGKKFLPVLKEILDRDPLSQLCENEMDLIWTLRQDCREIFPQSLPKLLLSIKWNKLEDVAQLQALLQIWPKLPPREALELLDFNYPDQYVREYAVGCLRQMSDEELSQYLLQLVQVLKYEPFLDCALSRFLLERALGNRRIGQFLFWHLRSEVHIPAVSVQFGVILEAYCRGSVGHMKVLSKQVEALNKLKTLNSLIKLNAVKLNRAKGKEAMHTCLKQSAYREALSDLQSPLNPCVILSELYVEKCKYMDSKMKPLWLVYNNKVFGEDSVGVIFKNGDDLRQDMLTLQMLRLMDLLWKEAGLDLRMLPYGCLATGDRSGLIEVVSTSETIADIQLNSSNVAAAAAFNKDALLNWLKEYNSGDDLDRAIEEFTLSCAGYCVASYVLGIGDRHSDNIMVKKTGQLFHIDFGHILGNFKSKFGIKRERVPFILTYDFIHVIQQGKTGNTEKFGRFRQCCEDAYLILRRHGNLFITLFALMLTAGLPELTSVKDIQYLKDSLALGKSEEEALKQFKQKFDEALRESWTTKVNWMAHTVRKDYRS
T3 sequence (P27986 whole entry partner): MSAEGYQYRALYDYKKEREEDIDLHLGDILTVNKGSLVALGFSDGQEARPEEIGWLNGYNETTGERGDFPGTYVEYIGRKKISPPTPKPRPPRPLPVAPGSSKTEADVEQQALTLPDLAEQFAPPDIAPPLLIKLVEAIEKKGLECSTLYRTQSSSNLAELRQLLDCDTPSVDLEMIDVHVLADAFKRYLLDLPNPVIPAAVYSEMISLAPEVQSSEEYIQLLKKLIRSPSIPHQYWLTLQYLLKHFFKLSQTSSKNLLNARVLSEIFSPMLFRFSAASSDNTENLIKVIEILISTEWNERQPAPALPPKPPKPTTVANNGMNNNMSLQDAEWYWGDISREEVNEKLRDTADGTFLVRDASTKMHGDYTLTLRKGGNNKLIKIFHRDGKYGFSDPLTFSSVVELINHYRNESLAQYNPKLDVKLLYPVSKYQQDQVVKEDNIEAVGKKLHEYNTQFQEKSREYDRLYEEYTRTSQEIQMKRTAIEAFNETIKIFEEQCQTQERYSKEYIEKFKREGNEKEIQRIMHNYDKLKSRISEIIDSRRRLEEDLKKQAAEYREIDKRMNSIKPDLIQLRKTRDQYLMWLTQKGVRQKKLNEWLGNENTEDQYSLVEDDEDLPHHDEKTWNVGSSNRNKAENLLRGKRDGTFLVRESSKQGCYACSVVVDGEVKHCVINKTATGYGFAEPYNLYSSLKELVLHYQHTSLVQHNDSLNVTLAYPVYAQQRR
Experimental: as §1, §2, §3

PI3K δ = biological target: T4, PI3K δ (Homo sapiens, UniProt O00329); test: PI3-Kinase Promega ADP-Glo Max assay; assay type: biochemical; settings: 20 nM kinase, 3 mM ATP, 500 uM diC8-PtdInsP
T4 construct: purchased Millipore
T4 sequence (O00329 whole entry): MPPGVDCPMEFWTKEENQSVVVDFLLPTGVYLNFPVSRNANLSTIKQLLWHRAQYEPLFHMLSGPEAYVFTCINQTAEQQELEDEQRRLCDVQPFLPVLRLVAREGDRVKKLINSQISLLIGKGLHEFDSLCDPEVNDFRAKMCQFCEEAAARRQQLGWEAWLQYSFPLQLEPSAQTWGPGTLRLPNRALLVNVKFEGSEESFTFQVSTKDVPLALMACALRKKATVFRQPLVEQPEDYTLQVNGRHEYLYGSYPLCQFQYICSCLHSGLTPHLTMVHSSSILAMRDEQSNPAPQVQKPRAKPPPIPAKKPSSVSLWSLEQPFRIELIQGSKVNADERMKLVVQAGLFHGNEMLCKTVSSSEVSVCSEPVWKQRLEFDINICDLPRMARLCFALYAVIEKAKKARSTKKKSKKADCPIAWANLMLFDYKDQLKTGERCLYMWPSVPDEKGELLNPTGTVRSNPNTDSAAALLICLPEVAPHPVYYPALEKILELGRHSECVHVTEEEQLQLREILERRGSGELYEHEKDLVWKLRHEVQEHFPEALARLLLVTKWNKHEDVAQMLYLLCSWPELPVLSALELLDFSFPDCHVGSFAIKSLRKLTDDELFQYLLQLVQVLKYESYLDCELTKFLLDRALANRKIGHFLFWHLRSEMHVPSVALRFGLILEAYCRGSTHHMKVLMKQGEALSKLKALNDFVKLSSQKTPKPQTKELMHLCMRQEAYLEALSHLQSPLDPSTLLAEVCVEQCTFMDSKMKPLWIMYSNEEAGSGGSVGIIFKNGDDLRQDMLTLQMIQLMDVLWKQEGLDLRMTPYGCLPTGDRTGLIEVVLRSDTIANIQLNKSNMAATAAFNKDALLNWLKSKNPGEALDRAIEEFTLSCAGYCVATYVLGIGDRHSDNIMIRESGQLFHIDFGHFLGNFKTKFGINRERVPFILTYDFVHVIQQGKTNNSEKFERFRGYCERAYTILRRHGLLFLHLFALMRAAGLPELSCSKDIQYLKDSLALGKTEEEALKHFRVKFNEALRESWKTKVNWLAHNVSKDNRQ
T4 sequence (P27986 whole entry partner): as the sequence (P27986 whole entry partner) above
Experimental: as §1, §2, §3

PI3K γ = biological target: T5, PI3K γ (Homo sapiens, UniProt P48736); test: PI3-Kinase Promega ADP-Glo Max assay; assay type: biochemical; settings: 40 nM kinase, 3 mM ATP, 500 uM diC8-PtdInsP
T5 construct: purchased Millipore
Experimental: Promega ADP-Glo Max assay kit (Cat. No. V7002) was utilized to determine IC50 values for α, β, δ and γ isoforms of human Class I PI3 kinases (Millipore). […] Reactions were incubated at room temperature for 2 hours followed by addition of 25 uL of stop solution. After a 40-minute incubation at room temperature, 50 uL of Promega detection mix was added followed by incubation for 1 hour at room temperature. Plates were then read on Envision plate reader in luminescence mode. Data was converted to % inhibition using the following equation below:
[formula] where S is the sample luminescence, Pos is a positive control without added PI3K, Neg is the negative control without added compound. Data was then plotted as % inhibition vs compound concentration.
as §3

RAJI p110 δ, sequence (O00329 whole entry): as the sequence (O00329 whole entry) above
RAJI p110 δ, sequence (P27986 whole entry partner): as the sequence (P27986 whole entry partner) above

SMILES | IC50 (RAJI p110 δ) [nM] | IC50 (Raw264.7 p110 γ) [nM] | IC50 (PI3K α) [nM] | IC50 (PI3K β) [nM] | IC50 (PI3K δ) [nM] | IC50 (PI3K γ) [nM]
C[C@H](NC(=O)c1c(N)nn2ccc(-c3cccc(S(C)(=O)=O)c3)nc12)c1cc2cccc(Cl)c2c(=O)n1-c1ccccc1 [Compound 127] | < 100 | < 100 | < 100 | < 100 | < 100 | < 100
C[C@H](NC(=O)c1c(N)nn2cccnc12)c1cc2cccc(-c3cccnc3)c2c(=O)n1-c1ccccc1 [Compound 118] | < 100 | < 100 | 1000 to 10000 | > 10000 | 100 to 1000 | 100 to 1000
CC(C)NS(=O)(=O)c1cccc(-c2cnc(N)c(C(=O)N[C@@H](C)c3cc4cccc(Cl)c4c(=O)n3-c3ccccc3)n2)c1 [Compound 97] | < 100 | < 100 | 1000 to 10000 | 100 to 1000 | 1000 to 10000 | 100 to 1000
C[C@H](NC(=O)c1nc(-c2cccc(NS(=O)(=O)C3CC3)c2)cnc1N)c1cc2cccc(Cl)c2c(=O)n1-c1ccccc1 [Compound 102] | < 100 | < 100 | 1000 to 10000 | 100 to 1000 | 1000 to 10000 | < 100
Cc1cc(C)n2nc(N)c(C(=O)N[C@@H](C)c3cc4cccc(Cl)c4c(=O)n3-c3ccccc3)c2n1 [Compound 152] | < 100 | < 100 | 1000 to 10000 | 100 to 1000 | 1000 to 10000 | 100 to 1000
C[C@H](NC(=O)c1c(N)nn2cccnc12)c1cc2cccc(Cl)c2c(=O)n1-c1ccc(F)c(F)c1 [Compound 75] | 100 to 1000 | < 100 | 1000 to 10000 | 1000 to 10000 | 1000 to 10000 | < 100
C[C@H](NC(=O)c1nc(-c2cccc(S(=O)(=O)NC3CC3)c2)cnc1N)c1cc2cccc(Cl)c2c(=O)n1-c1ccccc1 [Compound 96] | < 100 | < 100 | > 10000 | 1000 to 10000 | 1000 to 10000 | 1000 to 10000
COc1cc(-c2cccc3cc([C@H](C)NC(=O)c4c(N)nn5cccnc45)n(C4CC4)c(=O)c23)ccn1 [Compound 150] | 100 to 1000 | < 100 | 1000 to 10000 | 1000 to 10000 | 1000 to 10000 | 1000 to 10000
C[C@H](NC(=O)c1c(N)nn2cccnc12)c1cc2cccc(Cl)c2c(=O)n1-c1ccc(F)cc1 [Compound 72] | < 100 | < 100 | 1000 to 10000 | 100 to 1000 | 1000 to 10000 | < 100
Cc1cccc2cc([C@H](C)NC(=O)c3c(N)nn4cccnc34)n(-c3ccccc3)c(=O)c12 [Compound 123] | < 100 | < 100 | 1000 to 10000 | 1000 to 10000 | 1000 to 10000 | 100 to 1000
COc1cc(-c2cccc3cc([C@H](C)NC(=O)c4c(N)ncc5cccnc45)n(-c4ccccc4)c(=O)c23)ccn1 [Compound 140] | < 100 | < 100 | 1000 to 10000 | > 10000 | 100 to 1000 | < 100
Cc1c([C@H](C)NC(=O)c2c(N)nn3cccnc23)n(-c2ccccc2)c(=O)c2c(F)cccc12 [Compound 260] | < 100 | < 100 | 1000 to 10000 | 100 to 1000 | 100 to 1000 | < 100
C[C@H](NC(=O)c1c(N)nn2cccnc12)c1cc2cccc(Cl)c2c(=O)n1C [Compound 74] | < 100 | < 100 | 1000 to 10000 | < 100 | 100 to 1000 | 100 to 1000
CC[C@H](NC(=O)c1c(N)nn2cccnc12)c1cc2cccc(Cl)c2c(=O)n1-c1ccccc1 [Compound 250] | < 100 | < 100 | 1000 to 10000 | < 100 | < 100 | 100 to 1000
